We go through 2 molecules from patent publication US20240139211A1, “METHODS AND COMPOSITIONS FOR TREATING AMYOTROPHIC LATERAL SCLEROSIS” (Amylyx Pharmaceuticals, Inc., priority 2022, published 2024).

Data set [1] relates to CYP2B6.
Data set [2] has as its target T1, BCRP (Homo sapiens, UniProt Q9UNQ0).
T1 sequence (Q9UNQ0 1-655): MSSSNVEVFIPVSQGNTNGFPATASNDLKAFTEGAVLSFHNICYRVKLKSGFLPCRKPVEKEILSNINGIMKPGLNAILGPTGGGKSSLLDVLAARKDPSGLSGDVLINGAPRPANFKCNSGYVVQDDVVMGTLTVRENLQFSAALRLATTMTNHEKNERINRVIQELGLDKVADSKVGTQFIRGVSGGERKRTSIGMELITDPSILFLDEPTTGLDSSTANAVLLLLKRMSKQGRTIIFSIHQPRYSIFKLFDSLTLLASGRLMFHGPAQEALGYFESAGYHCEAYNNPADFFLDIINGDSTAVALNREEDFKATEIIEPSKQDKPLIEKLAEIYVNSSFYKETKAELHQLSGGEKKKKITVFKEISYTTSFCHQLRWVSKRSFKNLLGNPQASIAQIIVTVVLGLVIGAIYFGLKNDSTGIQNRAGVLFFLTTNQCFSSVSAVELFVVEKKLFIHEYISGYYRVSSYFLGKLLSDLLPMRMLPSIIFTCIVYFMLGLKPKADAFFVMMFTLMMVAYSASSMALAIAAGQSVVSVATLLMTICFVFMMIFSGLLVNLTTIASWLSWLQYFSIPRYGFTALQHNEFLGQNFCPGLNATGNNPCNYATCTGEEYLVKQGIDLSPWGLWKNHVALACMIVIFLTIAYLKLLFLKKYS
The data set can be described thus: in vitro. The settings on record: Caco-2 cells, probe 3H-estrone-3-sulfate.

Data set [3] deals with CYP3A4 mRNA. The data set can be described thus: in vitro. The settings on record: human, hepatocyte cultures.
A short description of data set [4]: CYP reaction phenotyping, CYP control (negative control without CYP enzymes), % remaining. Type of data set: in vitro ADME. The conditions noted are these: CYP Control 0.1 mg protein/mL, 5 μM TA, PB and TUDCA co-incubated. How it is done:
The percent remaining of TA was calculated using the following equation: […]

Data set [5] addresses T2, CYPs in human liver microsomes (HLM) (Homo sapiens, UniProt P10632).
T2 sequence (P10632 1-490): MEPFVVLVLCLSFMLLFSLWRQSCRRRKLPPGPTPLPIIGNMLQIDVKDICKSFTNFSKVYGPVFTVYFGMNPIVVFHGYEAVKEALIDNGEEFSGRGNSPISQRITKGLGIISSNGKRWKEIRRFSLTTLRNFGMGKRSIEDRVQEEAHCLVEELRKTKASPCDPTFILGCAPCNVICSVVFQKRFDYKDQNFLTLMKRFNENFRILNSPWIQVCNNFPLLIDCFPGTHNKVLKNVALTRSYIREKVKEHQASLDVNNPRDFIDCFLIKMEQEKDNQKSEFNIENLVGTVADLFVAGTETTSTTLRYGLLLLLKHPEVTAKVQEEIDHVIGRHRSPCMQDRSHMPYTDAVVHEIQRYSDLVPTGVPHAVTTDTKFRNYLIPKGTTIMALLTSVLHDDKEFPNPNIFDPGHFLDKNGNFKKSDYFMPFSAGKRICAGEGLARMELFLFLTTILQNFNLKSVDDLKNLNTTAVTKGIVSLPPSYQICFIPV
As to the kind of experiment: CYP reaction phenotyping in HLM with chemical inhibitors (% remaining). The settings on record: +NADPH +montelukast (CYP2C8).

Data set [6] has as its target T3, CYPs in human liver microsomes (HLM) (Homo sapiens, UniProt P20813).
T3 sequence (P20813 1-491): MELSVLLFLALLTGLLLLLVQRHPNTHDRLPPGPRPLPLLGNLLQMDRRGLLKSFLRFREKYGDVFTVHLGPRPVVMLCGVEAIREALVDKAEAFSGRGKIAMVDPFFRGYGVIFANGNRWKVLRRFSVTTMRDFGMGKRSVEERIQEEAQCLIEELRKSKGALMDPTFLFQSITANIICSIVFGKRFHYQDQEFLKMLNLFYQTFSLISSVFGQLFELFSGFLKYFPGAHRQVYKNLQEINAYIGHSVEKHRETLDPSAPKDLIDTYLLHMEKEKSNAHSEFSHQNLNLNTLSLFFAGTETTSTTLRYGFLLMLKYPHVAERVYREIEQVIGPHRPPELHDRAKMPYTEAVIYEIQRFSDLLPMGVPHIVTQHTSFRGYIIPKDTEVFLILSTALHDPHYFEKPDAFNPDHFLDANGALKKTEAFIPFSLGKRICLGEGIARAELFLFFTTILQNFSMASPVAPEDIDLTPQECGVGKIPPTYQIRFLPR
The data set is described as above. The conditions noted are these: +NADPH +thio-TEPA (CYP2B6).

Data set [7] has as its target T4, OCT2 (Homo sapiens, UniProt O15244).
T4 sequence (O15244 1-555): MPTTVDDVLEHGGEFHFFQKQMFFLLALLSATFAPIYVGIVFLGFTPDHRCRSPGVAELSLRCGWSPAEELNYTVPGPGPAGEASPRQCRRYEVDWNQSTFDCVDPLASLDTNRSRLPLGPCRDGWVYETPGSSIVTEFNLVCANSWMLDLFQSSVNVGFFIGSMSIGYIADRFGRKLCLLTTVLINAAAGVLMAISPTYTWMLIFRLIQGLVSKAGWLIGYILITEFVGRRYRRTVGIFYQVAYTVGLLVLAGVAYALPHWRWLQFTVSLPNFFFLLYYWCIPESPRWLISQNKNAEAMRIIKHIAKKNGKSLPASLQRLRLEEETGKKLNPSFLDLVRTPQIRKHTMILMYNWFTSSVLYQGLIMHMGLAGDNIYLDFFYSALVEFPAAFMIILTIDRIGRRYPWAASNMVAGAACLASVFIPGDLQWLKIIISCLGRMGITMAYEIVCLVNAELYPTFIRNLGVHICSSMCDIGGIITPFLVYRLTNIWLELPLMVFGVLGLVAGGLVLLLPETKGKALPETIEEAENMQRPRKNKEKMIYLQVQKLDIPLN
As to the kind of experiment: OCT2 inhibition, MPP+ uptake in transfected HEK cells. The settings on record: read-out: Estimated IC50 toward OCT2; TUDCA and PB present simultaneously.

Where two headings read alike, the source gives them in different places.

Take `C[C@H](CCC(=O)NCC(=O)O)[C@H]1CC[C@H]2[C@@H]3[C@@H](O)C[C@@H]4C[C@H](O)CC[C@]4(C)[C@H]3CC[C@]12C` [Glycoursodeoxycholic acid, glycoursodeoxycholic acid]: the “Maximum fold induction of CYP2B6 activity” value in data set [1] (Donor 1) worked out at 1.50 fold; in data set [1] (Donor 2), 2.81 fold; in data set [1] (Donor 3), 1.52 fold. The potency estimated from few doses in data set [2] is more than 100 µM. The fold induction (as a rule, the ratio of treated to control signal) at 72 h in data set [3] turned out to be 2.44.
On to tauroursodeoxycholic acid [TUDCA], for which the “% Remaining of TA” value in data set [4] (0 min) is listed as 100%; in data set [4] (5 min), 99.4%; in data set [4] (10 min) it was 97.9%; in data set [4] (20 min), 95.9%; in data set [4] (30 min), 93.7%; in data set [4] (60 min) it was 101%. Moreover, the “% remaining of TA in HLM” value in data set [5] (5 min) turned out to be 101%; in data set [5] (10 min), 103%; in data set [5] (20 min) it was 95.5%; in data set [5] (30 min) it was 105%; in data set [5] (60 min), 97.7%; in data set [6] (5 min), 112%. Also, the figures for the “% remaining of TA in HLM” value in data set [6] (10 min), in data set [6] (20 min) and in data set [6] (30 min) were 112%, 122% and 116%, respectively. Besides, the IC50 (as a rule, the midpoint of a concentration-inhibition curve) in data set [7] was more than 162 µM.
